Laboratory results as given in US20230416330A1, “Optimized GIP Peptide Analogues” (Antag Therapeutics ApS, priority 2019, published 2023).
Non-standard residues stand in square brackets, D forms with d. Residues, ends and D or L forms follow the SMILES beside them. Groups on a side chain read outwards from the residue. *: point of attachment. C16 diacid = O=C(O)CCCCCCCCCCCCCCC(=O)*; Aib = CC(C)(N)C(=O)O

Columns and labels:
[1] = Physical stability: fibril formation in Thioflavin T (ThT) assay with agitation; assay type: physicochemical; details: 1 mg/ml, TFA, Phosphate (7.4); 25° C., agitation
Method: Continuous measurement of the fluorescence emission at 486 nm can be used as a measure of fibrillation behavior of peptides and proteins. The time until onset of fibrillation or fibrillation lag time is estimated here by defining the lag time (Tlag) as the point in time where the signal relative to the pre-transition baseline has reached 10% of the post-transition baseline.
50 mM sodium phosphate buffer for dissolving some samples was prepared in ultrapure water (Milli-Q® Reference A+ System, Merck) with a resistivity of 18.2 MΩ·cm. The buffer was adjusted to pH 7.4 and filtered.
The ultrapure water (MilliQ) for dissolving some samples was adjusted to pH 7.4 with NaOH and filtered prior to sample preparation.
(§1) Peptides were either dissolved in sodium phosphate buffer (50 mM, pH 7.4, filtered) or dissolved in ultrapure (MilliQ) water (adjusted to pH 7.4 with NaOH, filtered) (see Table 3). All peptide samples were prepared to a concentration of 1, 5, 7.5 or 15 mg/ml. All samples, with the exception of reference peptides GIP(3-30), AT158, and AT482 dissolved readily and produced clear and colorless solutions with gentle mixing. Peptide samples were subsequently filtered through 0.22 μm nylon filters (Q-Max® RR syringe filter, 13 mm, Frisenette, DK) to produce particle-free solutions. All samples were added to a 96-well plate reader for the ThT assay at t=0.
For each sample, […] ThT (1 mM) was added to 1.2 mL peptide solution. From this sample mixture, an amount of 200 uL/well was pipetted into four or five wells (n=4 or 5). Blank samples (buffer+ThT) were also included. One 3 mm silica bead was added to each well containing samples and the plate was subjected to orbital rotation at 300 rpm to agitate and stress the samples. The temperature was kept at 25° C. throughout the measurement.

[2] = Solubility by visual inspection of peptide solutions; assay type: physicochemical; details: 1 mg/ml, TFA, Phosphate (7.4)
Method: as §1
Clear visual appearance may be taken as an indicator of the immediate solubility of the peptide. […] Thus, A13Aib and/or N24E substitutions appear to increase solubility.

| Compound | Avr lag time [1] | Visual appearance [2] | Avr lag time (h) [1] |
| --- | --- | --- | --- |
| CC[C@H](C)[C@H](NC(=O)[C@H](CO)NC(=O)[C@H](Cc1ccc(O)cc1)NC(=O)[C@H](CC(=O)O)NC(=O)[C@H](CO)NC(=O)[C@@H](NC(=O)[C@H](Cc1ccccc1)NC(=O)[C@@H](NC(=O)CNC(=O)[C@@H](N)CCC(=O)O)[C@@H](C)O)[C@@H](C)CC)C(=O)N[C@@H](C)C(=O)N[C@@H](CCSC)C(=O)N[C@@H](CC(=O)O)C(=O)N[C@@H](CCCCN)C(=O)N[C@H](C(=O)N[C@@H](CCCCNC(=O)CCCCCCCCCCCCCCC(=O)O)C(=O)N[C@@H](CCC(N)=O)C(=O)N[C@@H](CCC(N)=O)C(=O)N[C@@H](CC(=O)O)C(=O)N[C@@H](Cc1ccccc1)C(=O)N[C@H](C(=O)N[C@@H](CC(N)=O)C(=O)N[C@@H](Cc1c[nH]c2ccccc12)C(=O)N[C@@H](CC(C)C)C(=O)N[C@@H](CC(C)C)C(=O)N[C@@H](C)C(=O)N[C@@H](CCC(N)=O)C(=O)N[C@@H](CCCCN)C(=O)O)C(C)C)[C@@H](C)CC [AT719] (H-EGTFISDYSIAMDKIK(C16 diacid)QQDFVNWLLAQK-OH; N-terminus assumed) | <8 h | Clear |  |
| CC[C@H](C)[C@H](NC(=O)[C@H](CCCCN)NC(=O)[C@H](CCC(=O)O)NC(=O)[C@H](CC(C)C)NC(=O)C(C)(C)NC(=O)[C@@H](NC(=O)[C@H](CO)NC(=O)[C@H](Cc1ccc(O)cc1)NC(=O)[C@H](CCC(=O)O)NC(=O)[C@H](CO)NC(=O)[C@@H](NC(=O)[C@H](Cc1ccccc1)NC(=O)[C@@H](NC(=O)CNC(=O)[C@@H](N)CCC(=O)O)[C@@H](C)O)[C@@H](C)CC)[C@@H](C)CC)C(=O)N[C@@H](CCCCNC(=O)[C@H](C)NC(=O)[C@H](CCC(=O)O)NC(=O)[C@H](CC(C)C)NC(=O)[C@H](C)NC(=O)CCCCCCCCCCCCCCC(=O)O)C(=O)N[C@@H](CCC(N)=O)C(=O)N[C@@H](CCC(N)=O)C(=O)N[C@@H](CCC(=O)O)C(=O)N[C@@H](Cc1ccccc1)C(=O)N[C@H](C(=O)N[C@@H](CCC(=O)O)C(=O)N[C@@H](Cc1c[nH]c2ccccc12)C(=O)N[C@@H](CC(C)C)C(=O)N[C@@H](CC(C)C)C(=O)N[C@@H](C)C(=O)N[C@@H](CCC(N)=O)C(=O)N[C@@H](CCCCN)C(=O)N1CCC[C@H]1C(=O)N[C@@H](CO)C(=O)N[C@@H](CO)C(=O)NCC(=O)N[C@@H](C)C(=O)N1CCC[C@H]1C(=O)N1CCC[C@H]1C(=O)N1CCC[C@H]1C(=O)N[C@@H](CO)C(=O)O)C(C)C [AT725] (H-EGTFISEYSI[Aib]LEKIK([Ala-Glu-Leu-Ala-C16 diacid])QQEFVEWLLAQKPSSGAPPPS-OH; N-terminus assumed) |  | Clear | fnd (Fnd = fibrils not detected within experiment time (96 hours) with agitation.) |
| CC[C@H](C)[C@H](NC(=O)[C@H](CO)NC(=O)[C@H](Cc1ccc(O)cc1)NC(=O)[C@H](CC(=O)O)NC(=O)[C@H](CO)NC(=O)[C@@H](NC(=O)[C@H](Cc1ccccc1)NC(=O)[C@@H](NC(=O)CNC(=O)[C@@H](N)CCC(=O)O)[C@@H](C)O)[C@@H](C)CC)C(=O)N[C@@H](C)C(=O)N[C@@H](CCSC)C(=O)N[C@@H](CC(=O)O)C(=O)N[C@@H](CCCCN)C(=O)N[C@@H](CCCCNC(=O)CCCCCCCCCCCCCCC(=O)O)C(=O)N[C@@H](Cc1c[nH]cn1)C(=O)N[C@@H](CCC(N)=O)C(=O)N[C@@H](CCC(N)=O)C(=O)N[C@@H](CC(=O)O)C(=O)N[C@@H](Cc1ccccc1)C(=O)N[C@H](C(=O)N[C@@H](CCC(=O)O)C(=O)N[C@@H](Cc1c[nH]c2ccccc12)C(=O)N[C@@H](CC(C)C)C(=O)N[C@@H](CC(C)C)C(=O)N[C@@H](C)C(=O)N[C@@H](CCC(N)=O)C(=O)N[C@@H](CCCCN)C(=O)N1CCC[C@H]1C(=O)N[C@@H](CO)C(=O)N[C@@H](CO)C(=O)NCC(=O)N[C@@H](C)C(=O)N1CCC[C@H]1C(=O)N1CCC[C@H]1C(=O)N1CCC[C@H]1C(=O)N[C@@H](CO)C(=O)O)C(C)C [AT742] (H-EGTFISDYSIAMDKK(C16 diacid)HQQDFVEWLLAQKPSSGAPPPS-OH; N-terminus assumed) |  | Clear | fnd (Fnd = fibrils not detected within experiment time (96 hours) with agitation.) |
